Assays:
[1] = design: species or system Cynomolgus monkeys; details: cynomolgus monkey, in vivo
Protocol: Phosphonoformic acid, also denoted PFA and phosphonoacetic acid, also denoted PAA were used in the form of their trisodium and disodium salt, respectively. The following equimolar compositions of the two test compounds were used: […]
Two adult male Cynomolgus monkeys were treated once daily for 7 days with PFA or PAA in Arlatone cream. Treatment was done both by topical application of 0.2 ml cream on an area of 3×7 cm on the upper part of the arms and by application of 0.2 ml of cream on the penis and the adjacent skin. During application of cream, the animals were lightly anaesthetized with Ketalar®, given intramuscularly. All applications were 0.2 ml each on day 6/3, 7/3, 8/3, 9/3, 10/3, 11/3 and 12/3 1978.

[2] = system: reverse transcriptase from RMuLV; assay: Cell-free reverse transcriptase inhibition, RMuLV; type: biochemical, Rauscher murine leukemia virus; details: template/primer (rA)n.(dT)10
Protocol: (§1) Reverse transcriptase from various retroviruses have been tested in cell-free assays for inhibition by phosphonoformic acid and phosphonoacetic acid. The assay conditions have been described by Collaborative Research, Inc, 1365 Main Street, Waltham, Mass., USA "Assay kit for mammalian viral reverse transcriptase". BLV and VV were prepared in this laboratory and all other viruses and viral enzyme were obtained from Dr. K Nilsson, Department of Pathology, University of Uppsala and from Boehringer Mannheim, Germany. Phosphonoformic acid (PFA) and phosphonoacetic acid (PAA) were added at pH 7.2 to the reaction mixtures at the start of the reaction.
(§2) Rauscher murine leukemia virus; RMuLV, visna virus; VV, avian myeloblastosis virus; AMV, bovine leukemia virus; BLV, baboon endogenous virus; BaEV, simian sarcoma virus; SSV.

[3] = guinea pig, in vivo
Protocol: Phosphonoformic acid and phosphonoacetic acid were used as their trisodium and disodium salts, respectively. The test substances were used in 1% solutions.
Guinea-pigs of the Dunkin-Hartley strain of both sexes and weighing 200-300 g were used. The back of the animal was shaved and depilated with Opilca® on the day before starting the application of the solutions. The back was divided into six squares in the middle of which 30 μl of the test solutions was applied. In a given group of animals the different solutions were applied in a randomized order alternating between sites. However, the same site was used for repeated application of a given solution.
The irritation was scored on scales of 0 to 3, each grade corresponding to the following specific criteria of irritation:
1=slight erythema or edema or no hair growth
2=moderate erythema or edema or skin discoloration
3=marked erythema or edema or necrosis including crust formation.
The scoring was carried out blindly using coded solutions.
The scores of all the applications for a given solution and time were added and the average score was calculated.
The solvent used was a mixture of glycerol 10.0% (w/v), Tween 80 0.1% and aq sterile ad 100. All solutions were adjusted to pH 6.5 with hydrochloric acid or aqueous sodium hydroxide as required. Thirty μl of 1.0% solutions of phosphonoformic acid and phosphonoacetic acid respectively was applied twice daily during three days to each of six guinea pigs.

[4] = system: reverse transcriptase from AMV; assay: Cell-free reverse transcriptase inhibition, AMV; type: biochemical, avian myeloblastosis virus
Protocol: as §1, §2

[5] = biological target: T1, reverse transcriptase from BLV (Bovine leukemia virus, UniProt P03361); assay: Cell-free reverse transcriptase inhibition, BLV; type: biochemical; details: template/primer (rA)n.(dT)10, read-out: Percent inhibition
T1 construct: Reverse transcriptase from various retroviruses have been tested in cell-free assays; made in house
T1 sequence (P03361 546-1120): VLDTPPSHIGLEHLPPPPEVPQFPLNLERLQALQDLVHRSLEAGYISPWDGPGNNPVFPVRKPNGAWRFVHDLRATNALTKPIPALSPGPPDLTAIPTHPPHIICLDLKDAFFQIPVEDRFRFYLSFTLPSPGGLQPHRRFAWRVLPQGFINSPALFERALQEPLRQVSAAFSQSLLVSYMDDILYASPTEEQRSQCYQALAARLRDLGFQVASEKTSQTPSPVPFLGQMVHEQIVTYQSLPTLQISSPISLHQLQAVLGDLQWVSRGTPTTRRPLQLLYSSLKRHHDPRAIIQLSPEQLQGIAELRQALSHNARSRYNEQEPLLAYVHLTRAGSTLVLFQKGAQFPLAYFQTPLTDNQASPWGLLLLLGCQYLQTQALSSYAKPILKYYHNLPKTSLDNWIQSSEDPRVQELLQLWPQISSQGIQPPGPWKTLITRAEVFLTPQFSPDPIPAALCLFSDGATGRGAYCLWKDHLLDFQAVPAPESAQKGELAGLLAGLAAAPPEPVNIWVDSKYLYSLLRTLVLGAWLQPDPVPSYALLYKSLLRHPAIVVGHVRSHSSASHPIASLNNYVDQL
Protocol: as §1, §2

visna virus = assay: Visna virus growth in sheep choroid plexus (SCP) cells: virus titre and morphological changes; type: cell-based; details: 500 μM
Protocol: Visna virus is a retrovirus that can multiply in sheep choroid (SCP) cells. The infection can be followed by titrating medium from infected cells to determine the formation of virus particles and by observing morphological changes as syncytial formation and cell degeneration.
Plates (5 cm) with primary SCP cells in medium 199 with 10% sheep serum were grown to confluence and then infected with 1×10^6 TCID50 (tissue culture infectious doses) of visna virus. One set of plates were left untreated, one set received different concentrations of phosphonoformic acid (PFA) at pH 7.2. Another set received phosphonoacetic acid (PAA) at pH 7.2. Uninfected plates were used as controls with and without PFA and PAA. The virus titre was determined 5 days after infection by the end-point titration method. The plates were checked daily in a light microscope to observe morphological changes.

[6] = biological target: T2, reverse transcriptase from VV (Maedi visna virus, UniProt P03370); assay: Cell-free reverse transcriptase inhibition, VV; type: biochemical; details: template/primer (rA)n.(dT)10, read-out: Percent inhibition
T2 construct: Reverse transcriptase from various retroviruses have been tested in cell-free assays; made in house
T2 sequence (P03370 541-1111): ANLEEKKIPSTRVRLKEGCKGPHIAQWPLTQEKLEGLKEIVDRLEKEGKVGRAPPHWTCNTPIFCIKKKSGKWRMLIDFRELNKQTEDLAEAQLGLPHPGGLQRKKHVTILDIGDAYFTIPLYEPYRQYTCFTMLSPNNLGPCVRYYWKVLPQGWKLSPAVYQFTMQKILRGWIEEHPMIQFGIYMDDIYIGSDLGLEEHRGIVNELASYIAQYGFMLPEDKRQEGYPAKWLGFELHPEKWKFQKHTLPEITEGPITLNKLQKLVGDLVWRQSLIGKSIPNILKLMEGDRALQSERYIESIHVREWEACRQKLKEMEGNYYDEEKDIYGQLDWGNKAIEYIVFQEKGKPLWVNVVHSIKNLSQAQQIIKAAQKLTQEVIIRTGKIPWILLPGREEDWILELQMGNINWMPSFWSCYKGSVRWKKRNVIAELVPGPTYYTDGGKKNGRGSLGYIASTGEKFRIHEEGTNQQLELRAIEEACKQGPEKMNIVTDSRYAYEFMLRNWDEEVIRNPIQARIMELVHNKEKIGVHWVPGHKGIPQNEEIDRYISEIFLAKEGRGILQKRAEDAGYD
Protocol: as §1, §2

[7] = biological target: T3, reverse transcriptase from BaEV (Baboon endogenous virus, UniProt P10272); assay: Cell-free reverse transcriptase inhibition, BaEV; type: biochemical; details: template/primer (rA)n.(dT)10, read-out: Percent inhibition
T3 construct: Reverse transcriptase from various retroviruses have been tested in cell-free assays
T3 sequence (P10272 659-1335): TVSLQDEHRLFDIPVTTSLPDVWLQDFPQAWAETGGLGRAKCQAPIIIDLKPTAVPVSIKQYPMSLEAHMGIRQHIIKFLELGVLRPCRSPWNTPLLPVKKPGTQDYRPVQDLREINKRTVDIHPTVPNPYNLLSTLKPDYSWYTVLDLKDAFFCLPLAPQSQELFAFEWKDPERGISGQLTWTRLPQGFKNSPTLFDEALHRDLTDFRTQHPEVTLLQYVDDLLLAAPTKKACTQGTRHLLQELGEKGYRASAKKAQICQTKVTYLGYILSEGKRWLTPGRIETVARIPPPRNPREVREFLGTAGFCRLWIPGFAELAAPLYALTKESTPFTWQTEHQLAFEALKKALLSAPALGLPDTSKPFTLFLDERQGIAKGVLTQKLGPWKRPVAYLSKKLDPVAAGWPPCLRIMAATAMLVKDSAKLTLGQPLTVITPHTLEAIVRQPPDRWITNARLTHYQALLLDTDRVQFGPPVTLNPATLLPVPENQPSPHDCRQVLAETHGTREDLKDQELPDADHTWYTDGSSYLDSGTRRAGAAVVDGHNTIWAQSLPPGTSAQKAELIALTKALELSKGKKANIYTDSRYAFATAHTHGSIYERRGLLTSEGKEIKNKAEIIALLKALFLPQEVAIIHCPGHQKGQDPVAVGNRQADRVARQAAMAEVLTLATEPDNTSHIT
Protocol: as §1, §2

[8] = biological target: T4, reverse transcriptase from SSV (Woolly monkey sarcoma virus, UniProt P03359); assay: Cell-free reverse transcriptase inhibition, SSV; type: biochemical, simian sarcoma virus; details: template/primer (rA)n.(dT)10, read-out: Percent inhibition
T4 construct: Reverse transcriptase from various retroviruses have been tested in cell-free assays
T4 sequence (P03359 642-1310): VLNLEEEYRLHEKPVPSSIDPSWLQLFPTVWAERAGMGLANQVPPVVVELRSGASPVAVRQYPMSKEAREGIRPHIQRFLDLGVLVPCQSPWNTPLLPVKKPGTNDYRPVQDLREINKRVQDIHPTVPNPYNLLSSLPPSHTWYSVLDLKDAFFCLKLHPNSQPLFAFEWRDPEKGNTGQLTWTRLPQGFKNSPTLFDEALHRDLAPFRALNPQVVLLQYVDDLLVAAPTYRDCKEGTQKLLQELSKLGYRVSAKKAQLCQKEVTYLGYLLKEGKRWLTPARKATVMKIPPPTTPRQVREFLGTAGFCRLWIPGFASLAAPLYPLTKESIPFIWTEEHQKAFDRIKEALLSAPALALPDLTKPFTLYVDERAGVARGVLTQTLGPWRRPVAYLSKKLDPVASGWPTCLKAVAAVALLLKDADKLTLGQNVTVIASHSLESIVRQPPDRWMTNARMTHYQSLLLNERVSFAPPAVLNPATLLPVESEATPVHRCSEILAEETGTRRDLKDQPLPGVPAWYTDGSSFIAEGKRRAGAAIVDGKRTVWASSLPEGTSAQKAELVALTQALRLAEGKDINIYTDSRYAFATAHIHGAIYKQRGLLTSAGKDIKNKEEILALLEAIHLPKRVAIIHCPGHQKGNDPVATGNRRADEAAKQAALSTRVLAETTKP
Protocol: as §1, §2

In the case of `O=C(O)CP(=O)(O)O` [phosphonoacetic acid, reference compound], the “Result (skin irritation), area of application penis” value [1] is reported as “Glans penis and adjacent skin areas irritated 9/3-12/3 Adjacent skin areas also showed symptoms 23/3”, the Percent inhibition ([2]; 10 μM) is reported as 0% and the Percent inhibition ([2]; 100 μM) is reported as 10%. For the same compound, the Percent inhibition ([2]; 500 μM) was 35%, the “skin condition after two weeks” value [3] was “the skin heals after about two weeks but remains hairless” and the skin irritation score ([3]; pH 6.5) was 2-3 score. For the same compound, the Percent inhibition ([4]; 10 μM, endogenous template) was 0%, the Percent inhibition ([4]; 10 μM, purified enzyme, (rA)n.(dT)10) was 0% and the Percent inhibition ([4]; 10 μM, template/primer (rA)n.(dT)10) was 0%. It also gave a Percent inhibition ([4]; 100 μM, endogenous template) of -2%, a Percent inhibition ([4]; 100 μM, purified enzyme, (rA)n.(dT)10) of 0% and a Percent inhibition ([4]; 100 μM, template/primer (rA)n.(dT)10) of -34%. For the same compound, the Percent inhibition ([4]; 500 μM, endogenous template) was -3%, the Percent inhibition ([4]; 500 μM, purified enzyme, (rA)n.(dT)10) was 19% and the Percent inhibition ([4]; 500 μM, template/primer (rA)n.(dT)10) was -86%. The inhibition at 100 µM ([5]; 100 μM) was 0%, the inhibition at 500 µM ([5]; 500 μM) was 10% and the “effect on virus multiplication” value (visna virus; SCP cells) was “does not prevent virus multiplication”. The “Morphological changes Day 3” value (visna virus; Visna virus infected cells) was “+ (10% cell degeneration)”, the “Morphological changes Day 5” value (visna virus; Visna virus infected cells) was “++ (25% cell degeneration)” and the “Morphological changes Day 7” value (visna virus; Visna virus infected cells) was “++++ (100% cell degeneration)”. The inhibition at 100 µM ([6]; 100 μM) was 25%, the inhibition at 500 µM ([6]; 500 μM) was 3% and the inhibition at 10 µM ([7]; 10 μM) was 5%. It also gave an inhibition at 100 µM ([7]; 100 μM) of 58%, an inhibition at 500 µM ([7]; 500 μM) of 71% and an inhibition at 10 µM ([8]; 10 μM) of 0%. It also gave an inhibition at 100 µM ([8]; 100 μM) of 44% and an inhibition at 500 µM ([8]; 500 μM) of 58%.
